Assay [1] deals with Nucleic Acid. As to conditions: at 10 µM.
Description: Inhibition of N-acetylphenylalanine-tRNA peptide bond formation by puromycin reaction at 10E-5 M
Assay [2] relates to Nucleic Acid. As to conditions: at 10 µM. The source holds these as a separate data set.
Description: Inhibition of N-acetylphenylalanine-tRNA peptide bond formation by fragment reaction at 10e-5 M
Assay [3] deals with Nucleic Acid. As to conditions: at 1 µM.
Description: Inhibition of N-acetylphenylalanine-tRNA peptide bond formation by puromycin reaction at 10E-6 M

Our source for the inhibition values is ChEMBL document CHEMBL1124648, “Synthesis and biological activity of photoactive derivatives of erythromycin” (J Med Chem, 1989).

One may read the inhibition as the share of the control response that was lost under treatment. Low readings indicate a weak effect, high ones a strong effect.

As to SPIRAMYCIN, the inhibition was 85% with Nucleic Acid [1], 48% in the assay with Nucleic Acid [2] and 53% in the assay on Nucleic Acid [3].
Turning to `CC[C@H]1OC(=O)[C@H](C)[C@@H](O[C@H]2C[C@@](C)(OC)[C@@H](O)[C@H](C)O2)[C@H](C)[C@@H](O[C@@H]2O[C@H](C)C[C@H](N(C)C)[C@H]2O)[C@@](C)(O)C[C@@H](C)[C@H](NC(=O)CCCOc2ccc([N+](=O)[O-])cc2OC)[C@H](C)[C@@H](O)[C@]1(C)O`, the inhibition in the assay on Nucleic Acid [1] was determined as 25%; in the assay with Nucleic Acid [2], 11%; in the assay with Nucleic Acid [3], 13%.
Regarding `CC[C@H]1OC(=O)[C@H](C)[C@@H](O[C@H]2C[C@@](C)(OC)[C@@H](O)[C@H](C)O2)[C@H](C)[C@@H](O[C@@H]2O[C@H](C)C[C@H](N(C)C)[C@H]2O)[C@@](C)(O)C[C@@H](C)[C@H](NC(=O)COc2cc(N=[N+]=[N-])ccc2CO)[C@H](C)[C@@H](O)[C@]1(C)O`, the inhibition in the assay with Nucleic Acid [1] was found to be 23%; in the assay with Nucleic Acid [2], 0%; in the assay with Nucleic Acid [3], 15%.
For `CC[C@H]1OC(=O)[C@H](C)[C@@H](O[C@H]2C[C@@](C)(OC)[C@@H](O)[C@H](C)O2)[C@H](C)[C@@H](O[C@@H]2O[C@H](C)C[C@H](N(C)C)[C@H]2O)[C@@](C)(O)C[C@@H](C)[C@H](NC(=O)CNC(=O)CCCOc2ccc([N+](=O)[O-])cc2OC)[C@H](C)[C@@H](O)[C@]1(C)O`, the inhibition is 30% with Nucleic Acid [1], 24% with Nucleic Acid [2] and 18% with Nucleic Acid [3].
